The text below walks through data of US5525598A, “Gallium (III) complexes in pharmaceutical compositions” (Collery; Phillippe, priority 1991, dated 1996).

Read-outs that look alike come from different tables or passages of the source.

As usually defined, the EC50 is the midpoint of the concentration-response curve. As a reminder, the IC50 is the concentration that gives 50% inhibition.

The subject of data set [1] is human immunodeficiency virus (HIV-1). Kind of data set: Anti-HIV-1 activity, protection of T4 lymphocytes from killing by virus (NCI XTT assay). The format is cell-based. The source says:
(§1) The gallium (III) complexes were screened for anti-HIV-1 activity at the National Cancer Institute, Bethesda, Md., as part of their in vitro Anti-AIDS Drug Discovery Program. The assay is based on the killing (cytopathic effect) of T4 lymphocytes by human immunodeficiency virus (HIV-1) and is designed to evaluate the drug effects at any stage of the virus reproductive cycle. […] All tests are compared with a positive control done at the same time and under identical conditions employing 3'-Azido-3'-deoxythymidine (AZT).
(§2) The general procedure is reprinted below from NCI infomation sheets:
(§3) 1. Candidate agent is dissolved in dimethylsulfoxide, then diluted 1:2000 in cell culture medium. […] dilutions (half-log10) are prepared before adding to 96-well microtiter plated.
(§4) 2. T4 lymphocytes (CEN cell line) are exposed to HIV at a virus-to-cell ratio of approximately 0.05 and are plated along with noninfected control cells into drug-containing wells or wells with medium alone.
(§5) 3. Cultures are incubated at 37° C. in a 5% carbon dioxide atmosphere for 6 days.
(§6) 4. The tetrazolium salt, XTT, is added to all wells, and cultures are incubated to allow formazon colour development by viable cells.
(§7) 5. Individual wells are analysed spectrophotometrically to quantitate formazon production and, in addition, are viewed microscopically for detection of viable cells and confirmation of protective activity.
(§8) 6. Drug-treated virus-infected cells are compared with drug-treated noninfected cells and with other appropriate controls (untreated infected and untreated noninfected cells, drug-containing wells without cells, etc.) on the same plate.
(§9) 7. Data reviewed in comparison with other tests done at the same time, and a determination about activity is made.
In general terms: Tetrazolium dyes change colour on reduction, which living cells bring about.

Data set [2] has as its system T4 lymphocytes. Kind of data set: Drug effect on noninfected T4 lymphocytes (NCI XTT assay), IC50. It is filed as cell-based.
From the text: as §1, §2, §3, §4, §5, §6, §7, §8, §9

For data set [3] the following is noted: per os, aqueous formulation, therapeutical dosages; EP-B1-0059148; cited from earlier work.
Data set [4] concerns experimental animal tumors. The note with it: Adamson et al. 1975; cited from earlier work.
The subject of another data set is refractory lymphomas. The note with it: phase II trials, patients with refractory lymphomas; Foster et al. 1986; cited from earlier work.
The test system of data set [5] is reverse transcriptase of Rauscher murine leukemia virus. The note with it: in vitro; Waalkes et al. 1974; cited from earlier work.
The test system of data set [6] is human immunodeficiency virus (HIV-1). The note with it: cited from earlier work; for EC50: read-out: EC50 (anti-HIV activity).
Data set [7] relates to T4 lymphocytes. The following applies: cited from earlier work.
The subject of a further data set is P-388 leukaemia. Kind of data set: Antitumor activity, P-388 leukaemia, survival T/C. The note with it: P 388 system. It is filed as in vivo.
The test system of the next data set is sarcoma 180. The note with it: sarcoma 180 system. On the procedure: The gallium complexes were administered to animals bearing the P-388 leukaemia or the sarcoma 180 system and the average survival time (T) of the treated animals was compared with the average survival of control animals C. A high value T/C is characteristic of an antitumoral activity. [formula]

[8] abbreviates: CEM-SS, values from O. S. Weislow et al.
[9] abbreviates: CEM, values from R. Vince et al.

With `Cc1cn[nH]c1.Cc1cn[nH]c1.Cc1cn[nH]c1.Cc1cn[nH]c1.[Cl-].[Cl-].[Cl][Ga-]([Cl])([Cl])[Cl].[Ga+3]` [[(4-mpyr)4 GaCl2]GaCl4, trans-Dichlorotetrakis-(4-methylpyrazole)gallium(II) tetrachlorogallate(III)], the EC50 was found to be 231 µM in data set [1] (CEM-6) and 50.2 µM in data set [1] (CEM-IW). Moreover, the results for the “TI = IC50 /EC50” value in [1] (CEM-6) and in [1] (CEM-IW) were 1.11 and 3.92, respectively. In addition, the IC50 came out at 256 µM with T4 lymphocytes [2] (CEM-6) and 197 µM in the data set with T4 lymphocytes [2] (CEM-IW).
Turning to `[Cl-].[Cl-].[Cl-].[Ga+3]` [GaCl3, gallium (III) chloride], in data set [3], the renal toxicity result is reported as “no renal toxicity”.
For the compound `Cc1ccn[nH]1.Cc1ccn[nH]1.Cc1ccn[nH]1.Cc1ccn[nH]1.[Cl-].[Cl-].[Cl][Ga-]([Cl])([Cl])[Cl].[Ga+3]` [[(3-mpyr)4 GaCl2]GaCl4, trans-Dichlorotetrakis-(5-methylpyrazole)gallium (III) tetrachlorogallate (III)], in [1] (CEM-6), the EC50 was determined as 108 µM and the “TI = IC50 /EC50” value worked out at 1.52. For the same compound, in the data set with T4 lymphocytes [2] (CEM-6), the IC50 is 164 µM.
As to `O=[N+]([O-])[O-].O=[N+]([O-])[O-].O=[N+]([O-])[O-].[Ga+3]` [gallium nitrate], the antitumor activity result was “had shown antitumor activity” in data set [4] and “exhibits antitumor activity” in the data set with refractory lymphomas. Moreover, in data set [5], the “inhibition of reverse transcriptase” value was “inhibits the reverse transcriptase”.
Regarding `Cc1cn([C@H]2C[C@H](N=[N+]=[N-])[C@@H](CO)O2)c(=O)[nH]c1=O` [AZT, 3'-Azido-3'-deoxythymidine], the “TI = IC50 /EC50” value in data set [6] (setting [8]) is recorded as 1027; in [6] (setting [9]), 3680. Besides, the figures for the EC50 in data set [6] (setting [8]) and in data set [6] (setting [9]) were 0.186 µM and 0.187 µM, respectively. The IC50 was 191 µM with T4 lymphocytes [7] (setting [8]) and 689 µM in the data set on T4 lymphocytes [7] (setting [9]).
Consider “Dichloro-(2-α-oxybenzylbenzimidzoiato-N,O)gallium(III) [(HBB)GaCl2]”, for which, in the data set on P-388 leukaemia, the “T/C (survival time of treated versus control animals)” value was found to be 130%. Also, in data set [1] (CEM-IW), a half-maximal response (EC50) required 43 µM and the “TI = IC50 /EC50” value was 5.14. The compound also had an IC50 with T4 lymphocytes [2] (CEM-IW) of 221 µM.
For the compound `O=S(=O)([O-])c1ccc([O-])c2ncccc12.O=S(=O)([O-])c1ccc([O-])c2ncccc12.O=S(=O)([O-])c1ccc([O-])c2ncccc12.[Ga+3].[K+].[K+].[K+]` [Tris-(5-sulfono-8-hydroxyquinoline)gallium(III)-potassium salt], the “T/C (survival time of treated versus control animals)” value with sarcoma 180 is reported as 153%.
As for “trans-Dichlorotetrakis-(benzimidazole)gallium(III) chloride [[(bim)4 GaCl2]Cl]”, in data set [1] (CEM-6), it took 5.01 µM to reach a half-maximal effect (EC50) and the “TI = IC50 /EC50” value is reported as 76.9. Further, the IC50 with T4 lymphocytes [2] (CEM-6) was determined as 385 µM.
